Data on two compounds can be found in EP0218359A1, “Conditioning natural gas streams with preferential physical solvents” (EL PASO HYDROCARBONS COMPANY, priority 1985, dated 1987).

What all share (assay type): physicochemical
Series [1] is described as follows: preferential factor (relative volatility of methane over ethane multiplied by solubility of ethane in solvent). The conditions noted are these: relative volatility of methane over ethane x solubility of ethane in solvent. The text has this: The preferential physical solvents are defined for the purposes of this invention as having a minimum relative volatility of methane over ethane of at least 5.0 (thereby defining its improved selectivity toward ethane over methane) and in addition a solubility of at least 1.77 normal cubic meters of gaseous hydrocarbons per cubic meter of the solvent (Nm^3/m^3) (thereby defining its hydrocarbon loading capacity), or, alternatively, a preferential factor of at least 8.85. The preferential factor for physical solvent selection for the Mehra Process is defined as a product of relative volatility of methane over ethane multiplied by the solubility of ethane in physical solvents, specified as normal cubic meters of ethane per cubic meter of solvent. […] This combination of minimum relative volatility and minimum solubility enables solvent flow rate variations and operating pressure and temperature variations to be selectively 'utilized in the Mehra Process for flexibly producing liquid products having selected hydrocarbon compositions.
Relative Volatilities of Ethane/Methane, Solubilities of Ethane in Solvent, and combined Preferential Factors are given in the following Table II for NMP, DMF, a common lean oil, the minimum solvent having desired requirements for Mehra Process applications, DMPEG, mesitylene, and the ideal solvent in the Mehra Process. […]

Series [2] can be described thus: relative volatility of methane over ethane in the presence of the solvent. The text has this:
(§1) The preferential factor for physical solvent selection for the Mehra Process is defined as a product of relative volatility of methane over ethane multiplied by the solubility of ethane in physical solvents, specified as normal cubic meters of ethane per cubic meter of solvent.

The nature of series [3]: solubility of hydrocarbons in the solvent (hydrocarbon loading capacity). To be noted: normal cubic meters of gaseous hydrocarbons per cubic meter of the solvent.
Description: as §1

Regarding `CN1CCCC1=O` [NMP, N-methyl pyrrolidone], the preferential factor in series [1] is given as 1.1. For the same compound, in series [2], the “relative volatility for methane with respect to ethane” value is on record as 5.3. The same compound registered a solubility of hydrocarbons in series [3] of 0.2 Nm^3/m^3.
Consider “dimethyl ether of polyethylene glycol [DMPEG]”, for which, in series [1], the preferential factor is reported as 45. Besides, the “relative volatility for methane with respect to ethane” value in series [2] is on record as 6.4. In addition, the solubility of hydrocarbons in series [3] turned out to be 7.0 Nm^3/m^3.
